Consider 13 compounds from PubChem BioAssay (NCI).

Holding throughout (test): inhibition of tumour cell growth, NCI panel, 48 h
For assay [1], the system named is CCRF-CEM leukemia.
The test system of assay [2] is HCC-2998 colon.
The test system of assay [3] is HCT-116 colon.
In assay [4] the test system is NCI-H226 lung.
The subject of assay [5] is OVCAR-3 ovarian.
Assay [6] relates to OVCAR-4 ovarian.
Assay [7] concerns RXF 393 renal.
Assay [8] deals with SK-OV-3 ovarian.
The subject of assay [9] is SNB-75 CNS.
For assay [10], the system named is UACC-257 melanoma.

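All cell lines were grown in 96-well plates and treated with compound for 48 hours. At the GI50, growth is halved. TGI is the concentration that stops growth completely.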 Some results are limits rather than exact numbers.

For the compound `c1ccc2c(c1)SCCc1cn[nH]c1-2`, the TGI in assay [1], in assay [2], in assay [3], in assay [4], in assay [5] and in [6] was over 100 µM throughout. In addition, the TGI in [7], in [8], in assay [9] and in assay [10] was over 100 µM each time.

With `O=S(O)CCCSSSCCCS(=O)O`, the TGI in assay [1], in assay [2], in [3], in assay [5], in [6] and in assay [7] was over 100 µM each time. The TGI in assay [8], in [9] and in assay [10] was over 100 µM each time.

As to `CSCC(CO)NC(=O)/C=C/c1c(C)[nH]c(=O)[nH]c1=O` (stereo not drawn), the TGI in assay [1] was over 875 µM; in [2] it was 479 µM; in assay [3], over 875 µM; in assay [4] it was over 875 µM; in [5] it was 444 µM; in assay [6], 389 µM. Also, the TGI in assay [7], in assay [8], in assay [9] and in assay [10] was over 875 µM throughout.

Consider `Nc1ccc(Cn2ccc3c4c(N)nc(N)nc4ccc32)cc1`, for which the TGI in assay [1] worked out at 2.71 µM; in [2], 3 µM; in assay [3], 1.5 µM; in assay [4], 27.7 µM; in assay [5] it was 2.51 µM; in assay [6], 4.75 µM. Besides, the TGI in assay [7] was determined as 15.4 µM; in assay [8] it was 25.4 µM; in assay [9], 12.5 µM; in assay [10] it was 8.02 µM.

Turning to `c1ccc2c(c1)SP1Sc3ccccc3P21` (stereo not drawn), the TGI is over 100 µM in assay [1]; over 100 µM in [2]; over 100 µM in assay [3]; over 66.6 µM in assay [4]; over 100 µM in assay [5]; over 100 µM in [6]. In addition, the TGI in assay [7], in [8], in [9] and in [10] was over 100 µM each time.

For the compound `S=c1[nH]n2c(COc3ccc(Cl)cc3)nnc2s1`, the TGI in assay [2], in assay [3], in [4], in assay [5], in assay [6] and in [7] was over 100 µM in each case. The TGI in [8], in assay [9] and in assay [10] was over 100 µM in each case.

`CC1(C)N=C(c2ccccc2)SC12S[C@@H]1CCCC[C@H]1S2`: the TGI in assay [1], in [3], in assay [4], in [5], in [6] and in [7] was over 100 µM each time. The TGI in [8], in assay [9] and in [10] was over 100 µM each time.

Consider `CN(C)c1cccc(OC(=O)NCCCl)c1`, for which the GI50 in assay [1] was 94.6 µM; in assay [7], over 100 µM; in assay [9], over 100 µM. The TGI in assay [1], in assay [2], in assay [3], in assay [4], in assay [5] and in assay [6] was over 100 µM throughout. Moreover, the TGI in assay [7], in [8], in assay [9] and in [10] was over 100 µM each time.

In the case of `COCCNCc1ccc(-c2cc3nccc(Oc4ccc(NC(=O)C5(C(=O)Nc6ccc(F)cc6)CC5)cc4F)c3s2)nc1`, the GI50 was 2.55 µM in [1]; 1.78 µM in [3]; 1.89 µM in [4]; 2.2 µM in assay [5]; 1.67 µM in [6]; 1.93 µM in [8]. Also, the GI50 was 1.03 µM in [9] and 1.59 µM in assay [10]. The TGI in [1] is 7.06 µM; in assay [3] it was 3.92 µM; in assay [4], 4.73 µM; in assay [5] it was 4.82 µM; in assay [6] it was 4.79 µM; in assay [8], 3.78 µM. The TGI was 2.26 µM in assay [9] and 3.33 µM in assay [10].

`Cc1cccc2c1Sc1ccccc1C2NC(=O)CN(C)C` (stereo not drawn): the TGI in assay [1], in assay [2], in assay [3], in assay [4], in assay [6] and in [7] was over 100 µM throughout. For the same compound, the TGI is over 100 µM in assay [8], 86.7 µM in [9] and over 100 µM in [10].

Take `CO/C=C1\OC(=O)C=C1OC`: the TGI in assay [1], in [2], in [3], in assay [4], in assay [5] and in assay [6] was over 100 µM throughout. Besides, the TGI in [7], in assay [8], in assay [9] and in assay [10] was over 100 µM in each case.

As to `c1csc(-c2ccc(CNc3c4ccccc4nc4ccccc34)cc2)c1`, the GI50 in assay [1] is 1.28 µM; in assay [2], 1.53 µM; in assay [4], 5.57 µM; in assay [5], 1.58 µM; in [6] it was 1.53 µM; in assay [7] it was 1.25 µM. Besides, the GI50 in assay [8] is 11 µM; in assay [9], 2.24 µM; in assay [10], 2 µM. For the same compound, the TGI worked out at 3.91 µM in assay [1]; 3.01 µM in assay [2]; 38.6 µM in assay [4]; 2.97 µM in assay [5]; 3.07 µM in assay [6]; 2.73 µM in [7]. In addition, the figures for the TGI in assay [8], in [9] and in [10] were 29.8 µM, 6.58 µM and 4.06 µM, respectively.

In the case of `CN(c1ccccc1)c1nc(=[N+]2CCCC2)ss1`, the TGI in assay [1], in [2], in assay [3], in [4], in assay [5] and in assay [6] was over 100 µM each time. The TGI in assay [7] was 8.85 µM; in [8] it was over 100 µM; in assay [9], over 100 µM; in assay [10] it was over 100 µM.
